# Source: patent publication US10781224B2, “Bis(oxymethyl)phosphinic acid and biogenic metal salts thereof as regulators of plant growth and development” (priority 2016, dated 2020)
# Legend:
# Format in all cases: in vivo
# rice (Diamant variety) = test: Rice seed treatment with BHMPA salts: germination energy and germination rate
# Method in brief: (§1)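 Corn, winter wheat and rice seeds (50 per dish, on filter paper) were soaked for 1 h in BHMPA or its metal salts at 1·10^−6-1·10^−12%, with water as control. Germination energy was read on day 4 and germination rate on day 8 for wheat and day 7 for rice and corn, following GOST 12038-84, as the mean of four replicates.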
# [1] = system: winter wheat (Vershin variety); test: Winter wheat seed treatment with BHMPA salts: germinating power (length and mass of roots and sprouts)
# Method in brief: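 Seeds (50 per Petri dish on two layers of filter paper) soaked 1 h in BHMPA or its Ca, Mg, Na, Co, Mn, Cu or Zn salts at 1·10^−6-1·10^−12%, with water controls. Germination energy read on day 4, germination on day 8 (wheat) or day 7 (rice, corn), as % means of four replicates. Germinating power taken as root and sprout length plus wet and dry mass per 100 seedlings.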
# [2] = system: corn (Krasnodar 385 MV variety); test: Corn seed treatment with BHMPA salts: germination energy and germination rate
# Method in brief: as §1
# [3] = rice seed treatment, solution 1 · 10^−9%
# [4] = seed treatment, concentration 1 · 10^−6%
# [5] = seed treatment, concentration 1 · 10^−7%
# [6] = seed treatment, concentration 1 · 10^−8%
# [7] = seed treatment, concentration 1 · 10^−9%
# [8] = seed treatment, concentration 1 · 10^−10%
# [9] = seed treatment, concentration 1 · 10^−11%
# [10] = seed treatment, concentration 1 · 10^−12%
# [11] = comparative study, 1·10^−9% solution
# [12] = comparative study vs Melaphen, 1·10^−9% solution
smiles,measurement,setting,value
"O.O.O=P([O-])(CO)CO.O=P([O-])(CO)CO.[Mn+2] [Mn-salt, Manganese BHMPA Salt]","Germination energy, %",rice (Diamant variety); [3],86.7%
same,"Germination rate, %",rice (Diamant variety); [3],93.0%
same,Germination energy,"rice (Diamant variety); rice, 1·10^−9% solution",85.3%
same,Germination rate,"rice (Diamant variety); rice, 1·10^−9% solution",91.7%
same,Germination energy,rice (Diamant variety); [4],77.0%
same,Germination rate,rice (Diamant variety); [4],82.7%
same,Germination energy,rice (Diamant variety); [5],79.3%
same,Germination rate,rice (Diamant variety); [5],85.0%
same,Germination energy,rice (Diamant variety); [6],82.7%
same,Germination rate,rice (Diamant variety); [6],86.7%
same,Germination energy,rice (Diamant variety); [7],85.3%
same,Germination rate,rice (Diamant variety); [7],91.7%
same,Germination energy,rice (Diamant variety); [8],83.3%
same,Germination rate,rice (Diamant variety); [8],88.3%
same,Germination energy,rice (Diamant variety); [9],81.0%
same,Germination rate,rice (Diamant variety); [9],86.0%
same,Germination energy,rice (Diamant variety); [10],78.0%
same,Germination rate,rice (Diamant variety); [10],83.0%
same,"Length, root",[1]; 1·10^−6% solution,2.8 cm
same,"Length, root, + % to control",[1]; 1·10^−6% solution,−7%
same,"Length, sprout",[1]; 1·10^−6% solution,3.4 cm
same,"Length, sprout, + % to control",[1]; 1·10^−6% solution,−5.5%
same,"Mass, dry, root",[1]; 1·10^−6% solution,0.32 g/100 plantlings
same,"Mass, dry, root, + % to control",[1]; 1·10^−6% solution,−2%
same,"Mass, dry, sprout",[1]; 1·10^−6% solution,0.44 g/100 plantlings
same,"Mass, dry, sprout, + % to control",[1]; 1·10^−6% solution,−10%
same,"Mass, wet, root",[1]; 1·10^−6% solution,1.38 g/100 plantlings
same,"Mass, wet, root, + % to control",[1]; 1·10^−6% solution,−9%
same,"Mass, wet, sprout",[1]; 1·10^−6% solution,3.37 g/100 plantlings
same,"Mass, wet, sprout, + % to control",[1]; 1·10^−6% solution,−6%
same,germinating power results vs control,[1]; 1·10^−6% solution,lower than those of the control
same,"Length, root",[1]; 1·10^−7% solution,3.8 cm
same,"Length, root, + % to control",[1]; 1·10^−7% solution,27%
same,"Length, sprout",[1]; 1·10^−7% solution,4.8 cm
same,"Length, sprout, + % to control",[1]; 1·10^−7% solution,33%
same,"Mass, dry, root",[1]; 1·10^−7% solution,0.50 g/100 plantlings
same,"Mass, dry, root, + % to control",[1]; 1·10^−7% solution,35%
same,"Mass, dry, sprout",[1]; 1·10^−7% solution,0.58 g/100 plantlings
same,"Mass, dry, sprout, + % to control",[1]; 1·10^−7% solution,18%
same,"Mass, wet, root",[1]; 1·10^−7% solution,1.74 g/100 plantlings
same,"Mass, wet, root, + % to control",[1]; 1·10^−7% solution,14.5%
same,"Mass, wet, sprout",[1]; 1·10^−7% solution,3.84 g/100 plantlings
same,"Mass, wet, sprout, + % to control",[1]; 1·10^−7% solution,7%
same,"Length, root",[1]; 1·10^−8% solution,4.4 cm
same,"Length, root, + % to control",[1]; 1·10^−8% solution,47%
same,"Length, sprout",[1]; 1·10^−8% solution,6.0 cm
same,"Length, sprout, + % to control",[1]; 1·10^−8% solution,67%
same,"Mass, dry, root",[1]; 1·10^−8% solution,0.53 g/100 plantlings
same,"Mass, dry, root, + % to control",[1]; 1·10^−8% solution,43%
same,"Mass, dry, sprout",[1]; 1·10^−8% solution,0.67 g/100 plantlings
same,"Mass, dry, sprout, + % to control",[1]; 1·10^−8% solution,37%
same,"Mass, wet, root",[1]; 1·10^−8% solution,2.09 g/100 plantlings
same,"Mass, wet, root, + % to control",[1]; 1·10^−8% solution,37.5%
same,"Mass, wet, sprout",[1]; 1·10^−8% solution,4.52 g/100 plantlings
same,"Mass, wet, sprout, + % to control",[1]; 1·10^−8% solution,25.5%
same,"Length, root",[1]; 1·10^−9% solution,4.6 cm
same,"Length, root, + % to control",[1]; 1·10^−9% solution,53%
same,"Length, sprout",[1]; 1·10^−9% solution,7.9 cm
same,"Length, sprout, + % to control",[1]; 1·10^−9% solution,119%
same,"Mass, dry, root",[1]; 1·10^−9% solution,0.62 g/100 plantlings
same,"Mass, dry, root, + % to control",[1]; 1·10^−9% solution,67.5%
same,"Mass, dry, sprout",[1]; 1·10^−9% solution,0.84 g/100 plantlings
same,"Mass, dry, sprout, + % to control",[1]; 1·10^−9% solution,71%
same,"Mass, wet, root",[1]; 1·10^−9% solution,3.00 g/100 plantlings
same,"Mass, wet, root, + % to control",[1]; 1·10^−9% solution,97%
same,"Mass, wet, sprout",[1]; 1·10^−9% solution,5.09 g/100 plantlings
same,"Mass, wet, sprout, + % to control",[1]; 1·10^−9% solution,41%
same,"Length, root",[1]; 1·10^−10% solution,4.5 cm
same,"Length, root, + % to control",[1]; 1·10^−10% solution,50%
same,"Length, sprout",[1]; 1·10^−10% solution,7.1 cm
same,"Length, sprout, + % to control",[1]; 1·10^−10% solution,97%
same,"Mass, dry, root",[1]; 1·10^−10% solution,0.57 g/100 plantlings
same,"Mass, dry, root, + % to control",[1]; 1·10^−10% solution,54%
same,"Mass, dry, sprout",[1]; 1·10^−10% solution,0.80 g/100 plantlings
same,"Mass, dry, sprout, + % to control",[1]; 1·10^−10% solution,63%
same,"Mass, wet, root",[1]; 1·10^−10% solution,2.16 g/100 plantlings
same,"Mass, wet, root, + % to control",[1]; 1·10^−10% solution,142%
same,"Mass, wet, sprout",[1]; 1·10^−10% solution,4.60 g/100 plantlings
same,"Mass, wet, sprout, + % to control",[1]; 1·10^−10% solution,28%
same,"Length, root",[1]; 1·10^−11% solution,4.4 cm
same,"Length, root, + % to control",[1]; 1·10^−11% solution,47%
same,"Length, sprout",[1]; 1·10^−11% solution,6.1 cm
same,"Length, sprout, + % to control",[1]; 1·10^−11% solution,69%
same,"Mass, dry, root",[1]; 1·10^−11% solution,0.52 g/100 plantlings
same,"Mass, dry, root, + % to control",[1]; 1·10^−11% solution,40.5%
same,"Mass, dry, sprout",[1]; 1·10^−11% solution,0.75 g/100 plantlings
same,"Mass, dry, sprout, + % to control",[1]; 1·10^−11% solution,53%
same,"Mass, wet, root",[1]; 1·10^−11% solution,1.90 g/100 plantlings
same,"Mass, wet, root, + % to control",[1]; 1·10^−11% solution,34%
same,"Mass, wet, sprout",[1]; 1·10^−11% solution,4.00 g/100 plantlings
same,"Mass, wet, sprout, + % to control",[1]; 1·10^−11% solution,11%
same,"Length, root",[1]; 1·10^−12% solution,3.6 cm
same,"Length, root, + % to control",[1]; 1·10^−12% solution,20%
same,"Length, sprout",[1]; 1·10^−12% solution,5.2 cm
same,"Length, sprout, + % to control",[1]; 1·10^−12% solution,44%
same,"Mass, dry, root",[1]; 1·10^−12% solution,0.40 g/100 plantlings
same,"Mass, dry, root, + % to control",[1]; 1·10^−12% solution,8%
same,"Mass, dry, sprout",[1]; 1·10^−12% solution,0.69 g/100 plantlings
same,"Mass, dry, sprout, + % to control",[1]; 1·10^−12% solution,31%
same,"Mass, wet, root",[1]; 1·10^−12% solution,1.52 g/100 plantlings
same,"Mass, wet, root, + % to control",[1]; 1·10^−12% solution,0%
same,"Mass, wet, sprout",[1]; 1·10^−12% solution,3.48 g/100 plantlings
same,"Mass, wet, sprout, + % to control",[1]; 1·10^−12% solution,−3%
same,"Length, root",[1]; [11],9.8 cm
same,"Length, root, + % to control",[1]; [11],13%
same,"Length, sprout",[1]; [11],6.7 cm
same,"Length, sprout, + % to control",[1]; [11],8%
same,"Mass, dry, root",[1]; [11],0.66 g/100 plantlings
same,"Mass, dry, root, + % to control",[1]; [11],6%
same,"Mass, dry, sprout",[1]; [11],0.55 g/100 plantlings
same,"Mass, dry, sprout, + % to control",[1]; [11],8%
same,"Mass, wet, root",[1]; [11],5.69 g/100 plantlings
same,"Mass, wet, root, + % to control",[1]; [11],57%
same,"Mass, wet, sprout",[1]; [11],4.97 g/100 plantlings
same,"Mass, wet, sprout, + % to control",[1]; [11],25%
same,Germination energy,[2]; 1·10^−6% solution,81.0%
same,Germination rate,[2]; 1·10^−6% solution,83.3%
same,Germination energy,[2]; 1·10^−7% solution,82.3%
same,Germination rate,[2]; 1·10^−7% solution,85.0%
same,Germination energy,[2]; 1·10^−8% solution,84.7%
same,Germination rate,[2]; 1·10^−8% solution,87.5%
same,Germination energy,[2]; 1·10^−9% solution,87.7%
same,Germination rate,[2]; 1·10^−9% solution,88.7%
same,Germination rate,"[2]; 1·10^−9% solution, listed as Mn",90.0%
same,Germination energy,[2]; 1·10^−10% solution,85.0%
same,Germination rate,[2]; 1·10^−10% solution,87.5%
same,Germination energy,[2]; 1·10^−11% solution,82.7%
same,Germination rate,[2]; 1·10^−11% solution,85.3%
same,Germination energy,[2]; 1·10^−12% solution,80.3%
same,Germination rate,[2]; 1·10^−12% solution,83.0%
same,Germination energy,[2]; [12],87.3%
same,Germination rate,[2]; [12],95.0%
